Relative viability data for seven cell lines are collected here from the supplement of paper PMC10307832.

What all share (experiment): relative viability (nuclei count vs DMSO), 5 days (fraction); higher = more cells survive
Compound in experiment [1]: COc1cccc2c1C(=O)c1c(O)c3c(c(O)c1C2=O)C[C@@](O)(C(=O)CO)C[C@@H]3O[C@H]1C[C@H](N)[C@H](O)[C@H](C)O1 [Doxorubicin] + CC(=O)c1c(C)c2cnc(Nc3ccc(N4CCNCC4)cn3)nc2n(C2CCCC2)c1=O [Palbociclib] (partner 0.5 µM)
In a few lines:
(§1)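 For relative viability, nuclei counts in treated wells were divided by those in vehicle wells. Lung cancer cell lines had been pin-tool dosed in 1536-well plates the day after seeding and cultured for 5 days, then fixed and stained in one step (final 0.05% Triton X-100, 1% formaldehyde, 1 ug/ml Hoechst) and imaged at 4×. Doses were one drug alone or a fixed anchor-drug dose plus five library-drug doses (not always all listed) in √10 steps, and values are duplicate-plate medians.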

Compound in the experiment “Doxorubicin + Tozasertib”: COc1cccc2c1C(=O)c1c(O)c3c(c(O)c1C2=O)C[C@@](O)(C(=O)CO)C[C@@H]3O[C@H]1C[C@H](N)[C@H](O)[C@H](C)O1 [Doxorubicin] + Cc1cc(Nc2cc(N3CCN(C)CC3)nc(Sc3ccc(NC(=O)C4CC4)cc3)n2)n[nH]1 [Tozasertib] (partner 0.1 µM)
Put shortly:
as §1

Compound in the experiment “Doxorubicin + Alpelisib”: COc1cccc2c1C(=O)c1c(O)c3c(c(O)c1C2=O)C[C@@](O)(C(=O)CO)C[C@@H]3O[C@H]1C[C@H](N)[C@H](O)[C@H](C)O1 [Doxorubicin] + Cc1nc(NC(=O)N2CCC[C@H]2C(N)=O)sc1-c1ccnc(C(C)(C)C(F)(F)F)c1 [Alpelisib] (partner 2 µM)
Put shortly:
as §1

Compound in the experiment “Doxorubicin + Phenformin”: COc1cccc2c1C(=O)c1c(O)c3c(c(O)c1C2=O)C[C@@](O)(C(=O)CO)C[C@@H]3O[C@H]1C[C@H](N)[C@H](O)[C@H](C)O1 [Doxorubicin] + N=C(N)NC(=N)NCCc1ccccc1 [Phenformin] (partner 250 µM)
In a few lines: as §1

As for LK-2, the relative viability in experiment [1] (first compound 0.001 µM) was determined as 0.704; in experiment [1] (first compound 0.003162 µM), 0.773; in experiment [1] (first compound 0.01 µM) it was 0.637; in experiment [1] (first compound 0.03162 µM), 0.487; in experiment [1] (first compound 0.1 µM), 0.515; with Doxorubicin + Tozasertib (first compound 0.001 µM), 0.153. The relative viability turned out to be 0.156 with Doxorubicin + Tozasertib (first compound 0.003162 µM); 0.134 with Doxorubicin + Tozasertib (first compound 0.01 µM); 0.177 in the experiment with Doxorubicin + Tozasertib (first compound 0.03162 µM); 0.19 with Doxorubicin + Tozasertib (first compound 0.1 µM); 0.521 with Doxorubicin + Alpelisib (first compound 0.001 µM); 0.642 in the experiment with Doxorubicin + Alpelisib (first compound 0.003162 µM). The relative viability in the experiment with Doxorubicin + Alpelisib (first compound 0.01 µM) stood at 0.947; in the experiment with Doxorubicin + Alpelisib (first compound 0.03162 µM), 0.868; in the experiment with Doxorubicin + Alpelisib (first compound 0.1 µM), 0.85; in the experiment with Doxorubicin + Phenformin (first compound 0.001 µM), 0.31; with Doxorubicin + Phenformin (first compound 0.003162 µM), 0.328; with Doxorubicin + Phenformin (first compound 0.01 µM), 0.388. Further, the relative viability with Doxorubicin + Phenformin (first compound 0.03162 µM) is 0.33; in the experiment with Doxorubicin + Phenformin (first compound 0.1 µM), 0.351.
With NCI-H520, the relative viability in experiment [1] (first compound 0.001 µM) was determined as 0.213; in experiment [1] (first compound 0.003162 µM) it was 0.216; in experiment [1] (first compound 0.01 µM), 0.183; in experiment [1] (first compound 0.03162 µM), 0.175; in experiment [1] (first compound 0.1 µM) it was 0.203; with Doxorubicin + Tozasertib (first compound 0.001 µM), 0.409. Moreover, the relative viability with Doxorubicin + Tozasertib (first compound 0.003162 µM) was 0.432; in the experiment with Doxorubicin + Tozasertib (first compound 0.01 µM) it was 0.434; in the experiment with Doxorubicin + Tozasertib (first compound 0.03162 µM), 0.343; with Doxorubicin + Tozasertib (first compound 0.1 µM) it was 0.413; in the experiment with Doxorubicin + Alpelisib (first compound 0.001 µM) it was 0.903; in the experiment with Doxorubicin + Alpelisib (first compound 0.003162 µM), 1.05. Moreover, the relative viability with Doxorubicin + Alpelisib (first compound 0.01 µM) is 0.858; in the experiment with Doxorubicin + Alpelisib (first compound 0.03162 µM), 0.732; in the experiment with Doxorubicin + Alpelisib (first compound 0.1 µM), 0.738; with Doxorubicin + Phenformin (first compound 0.001 µM), 0.626; with Doxorubicin + Phenformin (first compound 0.003162 µM), 0.531; with Doxorubicin + Phenformin (first compound 0.01 µM), 0.611. Further, the relative viability is 0.465 with Doxorubicin + Phenformin (first compound 0.03162 µM) and 0.347 in the experiment with Doxorubicin + Phenformin (first compound 0.1 µM).
For the cell line NCI-H661, the relative viability in experiment [1] (first compound 0.001 µM) came to 0.384; in experiment [1] (first compound 0.003162 µM), 0.407; in experiment [1] (first compound 0.01 µM) it was 0.396; in experiment [1] (first compound 0.03162 µM) it was 0.36; in experiment [1] (first compound 0.1 µM), 0.34; in the experiment with Doxorubicin + Tozasertib (first compound 0.001 µM) it was 0.37. In addition, the relative viability with Doxorubicin + Tozasertib (first compound 0.003162 µM) came out at 0.354; with Doxorubicin + Tozasertib (first compound 0.01 µM) it was 0.349; with Doxorubicin + Tozasertib (first compound 0.03162 µM) it was 0.339; with Doxorubicin + Tozasertib (first compound 0.1 µM), 0.388; in the experiment with Doxorubicin + Alpelisib (first compound 0.001 µM) it was 0.589; with Doxorubicin + Alpelisib (first compound 0.003162 µM), 0.702. Besides, the relative viability with Doxorubicin + Alpelisib (first compound 0.01 µM) stood at 0.511; with Doxorubicin + Alpelisib (first compound 0.03162 µM), 0.592; with Doxorubicin + Alpelisib (first compound 0.1 µM), 0.469; with Doxorubicin + Phenformin (first compound 0.001 µM) it was 0.27; with Doxorubicin + Phenformin (first compound 0.003162 µM), 0.284; with Doxorubicin + Phenformin (first compound 0.01 µM), 0.265. Moreover, the relative viability with Doxorubicin + Phenformin (first compound 0.03162 µM) is 0.244; in the experiment with Doxorubicin + Phenformin (first compound 0.1 µM), 0.238.
On to ABC-1, for which the relative viability in experiment [1] (first compound 0.001 µM) amounted to 0.651; in experiment [1] (first compound 0.003162 µM) it was 0.712; in experiment [1] (first compound 0.01 µM) it was 0.543; in experiment [1] (first compound 0.03162 µM) it was 0.471; in experiment [1] (first compound 0.1 µM) it was 0.368; in the experiment with Doxorubicin + Tozasertib (first compound 0.001 µM), 0.223. Moreover, the relative viability stood at 0.207 with Doxorubicin + Tozasertib (first compound 0.003162 µM); 0.153 with Doxorubicin + Tozasertib (first compound 0.01 µM); 0.184 with Doxorubicin + Tozasertib (first compound 0.03162 µM); 0.181 with Doxorubicin + Tozasertib (first compound 0.1 µM); 1.04 in the experiment with Doxorubicin + Alpelisib (first compound 0.001 µM); 0.922 with Doxorubicin + Alpelisib (first compound 0.003162 µM). Besides, the relative viability with Doxorubicin + Alpelisib (first compound 0.01 µM) came to 1.02; with Doxorubicin + Alpelisib (first compound 0.03162 µM), 0.504; with Doxorubicin + Alpelisib (first compound 0.1 µM) it was 0.361; with Doxorubicin + Phenformin (first compound 0.001 µM) it was 0.223; with Doxorubicin + Phenformin (first compound 0.003162 µM) it was 0.161; with Doxorubicin + Phenformin (first compound 0.01 µM), 0.206. Also, the relative viability came out at 0.188 with Doxorubicin + Phenformin (first compound 0.03162 µM) and 0.156 with Doxorubicin + Phenformin (first compound 0.1 µM).
On to NCI-H2009, for which the relative viability is 0.238 in experiment [1] (first compound 0.001 µM); 0.207 in experiment [1] (first compound 0.003162 µM); 0.179 in experiment [1] (first compound 0.01 µM); 0.0594 in experiment [1] (first compound 0.03162 µM); 0.168 in experiment [1] (first compound 0.1 µM); 0.748 with Doxorubicin + Tozasertib (first compound 0.001 µM). Further, the relative viability with Doxorubicin + Tozasertib (first compound 0.003162 µM) turned out to be 0.745; with Doxorubicin + Tozasertib (first compound 0.01 µM) it was 0.678; with Doxorubicin + Tozasertib (first compound 0.03162 µM), 0.524; in the experiment with Doxorubicin + Tozasertib (first compound 0.1 µM) it was 0.284; with Doxorubicin + Alpelisib (first compound 0.001 µM), 1.08; in the experiment with Doxorubicin + Alpelisib (first compound 0.003162 µM), 1.2. Also, the relative viability in the experiment with Doxorubicin + Alpelisib (first compound 0.01 µM) came out at 1.17; in the experiment with Doxorubicin + Alpelisib (first compound 0.03162 µM), 1.07; in the experiment with Doxorubicin + Alpelisib (first compound 0.1 µM), 0.478; in the experiment with Doxorubicin + Phenformin (first compound 0.001 µM), 0.483; in the experiment with Doxorubicin + Phenformin (first compound 0.003162 µM), 0.482; with Doxorubicin + Phenformin (first compound 0.01 µM), 0.481. In addition, the relative viability in the experiment with Doxorubicin + Phenformin (first compound 0.03162 µM) is 0.414; with Doxorubicin + Phenformin (first compound 0.1 µM), 0.275.
Consider NCI-H1993, for which the relative viability is 0.492 in experiment [1] (first compound 0.001 µM); 0.695 in experiment [1] (first compound 0.003162 µM); 0.639 in experiment [1] (first compound 0.01 µM); 0.625 in experiment [1] (first compound 0.03162 µM); 0.649 in experiment [1] (first compound 0.1 µM); 0.593 with Doxorubicin + Tozasertib (first compound 0.001 µM). Also, the relative viability with Doxorubicin + Tozasertib (first compound 0.003162 µM) worked out at 0.657; with Doxorubicin + Tozasertib (first compound 0.01 µM), 0.555; with Doxorubicin + Tozasertib (first compound 0.03162 µM) it was 0.58; with Doxorubicin + Tozasertib (first compound 0.1 µM), 0.591; with Doxorubicin + Alpelisib (first compound 0.001 µM), 0.677; with Doxorubicin + Alpelisib (first compound 0.003162 µM), 0.627. Further, the relative viability with Doxorubicin + Alpelisib (first compound 0.01 µM) is 0.696; with Doxorubicin + Alpelisib (first compound 0.03162 µM), 0.627; with Doxorubicin + Alpelisib (first compound 0.1 µM) it was 0.619; with Doxorubicin + Phenformin (first compound 0.001 µM) it was 0.508; in the experiment with Doxorubicin + Phenformin (first compound 0.003162 µM), 0.494; with Doxorubicin + Phenformin (first compound 0.01 µM), 0.455. Further, the figures for the relative viability in the experiment with Doxorubicin + Phenformin (first compound 0.03162 µM) and with Doxorubicin + Phenformin (first compound 0.1 µM) were 0.491 and 0.453, respectively.
Consider HCC-78, for which the relative viability is 0.46 in experiment [1] (first compound 0.001 µM); 0.526 in experiment [1] (first compound 0.003162 µM); 0.449 in experiment [1] (first compound 0.01 µM); 0.488 in experiment [1] (first compound 0.03162 µM); 0.453 in experiment [1] (first compound 0.1 µM); 0.491 with Doxorubicin + Tozasertib (first compound 0.001 µM). The relative viability with Doxorubicin + Tozasertib (first compound 0.003162 µM) was 0.44; with Doxorubicin + Tozasertib (first compound 0.01 µM), 0.403; in the experiment with Doxorubicin + Tozasertib (first compound 0.03162 µM) it was 0.353; with Doxorubicin + Tozasertib (first compound 0.1 µM), 0.388; with Doxorubicin + Alpelisib (first compound 0.001 µM), 0.374; with Doxorubicin + Alpelisib (first compound 0.003162 µM), 0.269. Besides, the relative viability was found to be 0.548 with Doxorubicin + Alpelisib (first compound 0.01 µM); 0.298 with Doxorubicin + Alpelisib (first compound 0.03162 µM); 0.312 with Doxorubicin + Alpelisib (first compound 0.1 µM); 0.778 with Doxorubicin + Phenformin (first compound 0.001 µM); 0.768 with Doxorubicin + Phenformin (first compound 0.003162 µM); 0.659 with Doxorubicin + Phenformin (first compound 0.01 µM). The relative viability with Doxorubicin + Phenformin (first compound 0.03162 µM) was 0.706; in the experiment with Doxorubicin + Phenformin (first compound 0.1 µM), 0.625.
